# Read-outs that look alike come from different tables or passages of the source.
# How the values were obtained:
# [1] = Oral bioavailability (%F) following oral vs intravenous administration in rats; assay type: in vivo, male Sprague-Dawley rats; conditions: rat; for bioavailability: male, Sprague-Dawley, plasma, po
# Method: These compounds were administered intravenously and orally to compare the extent of absorption by the oral route to the intravenous route and evaluate their ability to inhibit platelet aggregation in vivo. The following brief protocol describes the experiment methodology.
# While anesthetized by an inhaled anesthetic, male Sprague-Dawley rats were surgically cannulated in the jugular vein for blood sample collection in order to assess systemic exposure of the compound after oral or intravenous administration and platelet aggregation. For the oral studies, compounds were administered as suspensions of the free acid or sodium salt forms, or as solutions of the sodium salt forms. Animals were allowed 48 hours to recover prior to dose administration.
# A blood samples was taken immediately prior to compound administration. This sample was used to assess the baseline platelet aggregation and potential drug interference in the LC/MS/MS analysis. Compound was administered by either oral gavage or tail vein and blood samples were withdrawn for plasma analysis at up to 12 time points ranging from 5 min to 24 hours following compound administration. LC/MS/MS was used to measure the amount of compound in the plasma after both routes of administration and the plasma exposure was compared between the oral and IV routes (%F). %F is the % of the administered dose that is absorbed after oral administration. […] The in vivo platelet aggregation data that was acquired at similar time points was then compared to the plasma concentration and a calculation of the concentration needed to inhibit platelet aggregation was made.
# The bioavailability of certain compounds of the present invention was determined following oral administration in rats, according to the protocol of Example 5. The compounds were administered as either a suspension of the free acid forms, a suspension of the sodium salt forms, or as a solution of the sodium salt forms.
# [2] = tested on: washed human platelets; assay: Inhibition of ADP-induced platelet aggregation in washed human platelets; assay type: cell-based; conditions: for IC50: ADP agonist challenge typically 1-5 μM, average of two experiments or more; for % inhibition of ADP-induced platelet aggregation at fixed concentration: antagonist at 0.3 μM, ADP typically 1-5 μM
# Method: Isolation of Platelets: Human blood is obtained from informed healthy adult volunteers. Blood is collected into one-sixth volume of acid/citrate/dextrose (ACD) buffer (85 mM sodium citrate, 65 mM citric acid, and 110 mM glucose). Collected blood is placed in a water bath at 37° C. for 30 minutes. Blood is then centrifuged at 275×g for 16 minutes at room temperature and the platelet-rich plasma is removed and centrifuged at 2200×g for 13 minutes at room temperature. The platelet pellet is resuspended in 40 mL of HEPES-buffered Tyrode's solution (137 mM NaCl, 2.7 mM KCl, 1 mM MgCl2, 2 mM CaCl2, 12 mM NaHCO3, 0.36 mM NaH2PO4, 5.5 mM glucose, 5 mM HEPES pH 7.4, 0.35% bovine serum albumin or 0.35% human serum albumin) containing 10 U/mL heparin and 5 μM (final concentration) prostaglandin I2 (PGI2). The platelet suspension is incubated in a 37° C. water bath for 10 minutes and then 5 μM (final conc.) PGI2 is added just before centrifugation at 1900×g for 8 minutes. The resulting pellet is resuspended in 40 mL of HEPES-buffered Tyrode's solution containing 5 μM (final concentration) PGI2 and then is incubated for 10 minutes in a 37° C. water bath. A small aliquot (500 μL) of the platelet suspension is removed for platelet counting. Prior to centrifugation 5 μM (final concentration) PGI2 is added to the suspension and then the suspension is centrifuged at 1900×g for 8 minutes. The pellet is resuspended at a density of 5×10^8 cells/mL in HEPES-buffered Tyrode's solution containing 0.05 U/mL apyrase. Aggregation Studies: ADP-induced platelet aggregation is determined by measuring the transmission of light through a 0.5 ml suspension of stirred (1000 rpm) washed platelets in a lumi-aggregometer at 37° C. (Chrono-Log Corp. Havertown, Pa.). The baseline of the instrument is set using 0.5 ml of Hepes-buffered Tyrode's solution. Prior to aggregation measurements, the platelet suspension is supplemented with 1 mg/ml fibrinogen. Platelet aggregation is initiated by the addition of indicated concentrations of ADP or other agonists, and the light transmission is continuously recorded for at least 8 min. When inhibitors of platelet aggregation are tested, platelets are incubated for 2 min in the presence of indicated concentrations of inhibitor before addition of ADP or other agonists, and the response is recorded for at least 8 min. The potency of agonists and inhibitors of platelet aggregation is calculated from both the rate of aggregation and the maximal extent of aggregation obtained for each determination by fitting the data to a four-parameter logistic equation using the GraphPad software package (GraphPad Corp. San Diego, Calif.).
# IC50 values represent the concentration of antagonist necessary to inhibit by 50% the aggregation elicited by a given concentration of ADP.
# The agonist challenge (ADP) was typically in the range of 1-5 μM. Data are presented in μM and are from the average of two experiments or more.
# [3] = administered as solution of the sodium salt form, read-out: % F, salt solution
# [4] = administered as suspension of the free acid form, read-out: % F, free acid suspension
# [5] = Homo sapiens, Platelet, read-out: PLATELET DATA IC50 Washed Platelets, washed human platelets
# [6] = read-out: PLATELET DATA IC50 Washed Platelets, washed human platelets
# [7] = administered as suspension of the sodium salt form, read-out: % F, salt suspension
smiles,measurement,setting,value
CCNC(=O)Nc1ncnc2c1ncn2C1OC(COc2ccccc2C(=O)O)C2O[C@H](/C=C/c3ccccc3)OC21 (some centres unmarked) [Compound 1],bioavailability,[1]; [3],~39%
same,bioavailability,[1]; [4],8 to 13%
same,bioavailability following oral administration (in words),[1],high bioavailability
same,"% F, free acid suspension",[1]; administered as suspension of the free acid form,8.7-13.1%
same,IC50,[2]; [5],319 nM
CCNC(=O)Nc1ncnc2c1ncn2C1OC(COc2c(OC)cccc2C(=O)O)C2O[C@H](/C=C/c3ccccc3)OC21 (some centres unmarked) [Compound 2],IC50,[2]; [5],279 nM
CCNC(=O)Nc1ncnc2c1ncn2C1OC(COc2cc(OC)ccc2C(=O)O)C2O[C@H](/C=C/c3ccccc3)OC21 (some centres unmarked) [Compound 3],IC50,[2]; [5],404 nM
CCNC(=O)Nc1ncnc2c1ncn2C1OC(COc2ccc(F)cc2C(=O)O)C2O[C@H](/C=C/c3ccccc3)OC21 (some centres unmarked) [Compound 4],IC50,[2]; [5],105 nM
CCNC(=O)Nc1ncnc2c1ncn2C1OC(COc2ccc(C)cc2C(=O)O)C2O[C@H](/C=C/c3ccccc3)OC21 (some centres unmarked) [Compound 5],IC50,[2]; [5],536 nM
CCNC(=O)Nc1ncnc2c1ncn2C1OC(COc2ccccc2CC(=O)O)C2O[C@H](/C=C/c3ccccc3)OC21 (some centres unmarked) [Compound 6],IC50,[2]; [5],297 nM
CCNC(=O)Nc1ncnc2c1ncn2C1OC(COc2cc(F)ccc2C(=O)O)C2O[C@H](/C=C/c3ccccc3)OC21 (some centres unmarked) [Compound 7],IC50,[2]; [5],385 nM
CCNC(=O)Nc1ncnc2c1ncn2C1OC(COc2cccc(F)c2C(=O)O)C2OC(/C=C/c3ccccc3)OC21 (centres unmarked) [Compound 8],IC50,[2]; [5],134 nM
CCNC(=O)Nc1ncnc2c1ncn2C1OC(COc2ccc(OC)cc2C(=O)O)C2O[C@H](/C=C/c3ccccc3)OC21 (some centres unmarked) [Compound 9],IC50,[2]; [5],744 nM
CCNC(=O)Nc1ncnc2c1ncn2C1OC(COc2ccccc2CC(=O)O)C2OC(c3ccc(F)cc3)OC21 (centres unmarked) [Compound 11],IC50,[2]; [5],570 nM
CCNC(=O)Nc1ncnc2c1ncn2C1OC(COc2ccccc2C(=O)O)C2O[C@H](c3ccc(F)cc3)OC21 (some centres unmarked) [Compound 12],IC50,[2]; [5],200 nM
CCNC(=O)Nc1ncnc2c1ncn2C1OC(COc2ccc(F)cc2C(=O)O)C2O[C@H](c3ccc(F)cc3)OC21 (some centres unmarked) [Compound 13],IC50,[2]; [5],< 100 nM
same,IC50,[2]; [6],89 nM
"CCNC(=O)Nc1ncnc2c1ncn2C1OC(COc2cc(OC)ccc2C(=O)O)C2OC(c3ccc(F)cc3)OC21 (centres unmarked) [Compound 14, 2-[6-[6-(3-Ethyl-ureido)-purin-9-yl]-2-(4-fluoro-phenyl)-tetrahydro-furo[3,4-d][1,3]dioxol-4-ylmethoxyl]-4-methoxy-benzoic acid]",bioavailability,[1]; [3],~44%
same,bioavailability,[1]; [7],21.5 to 22.1%
same,bioavailability following oral administration (in words),[1],high bioavailability
same,IC50,[2]; [5],< 100 nM
same,IC50,[2]; [6],96 nM
CCCNC(=O)Nc1ncnc2c1ncn2C1OC(COc2ccccc2C(=O)O)C2O[C@H](c3ccc(F)cc3)OC21 (some centres unmarked) [Compound 15],bioavailability,[1]; [3],~53%
same,bioavailability,[1]; [4],14.3 to 14.6%
same,bioavailability,[1]; [7],29.5 to 29.9%
same,bioavailability following oral administration (in words),[1],high bioavailability
same,"% F, salt solution",[1]; administered as solution of the sodium salt form,52.5-53.4%
same,IC50,[2]; [5],190 nM
CCCCNC(=O)Nc1ncnc2c1ncn2C1OC(COc2c(OC)cccc2C(=O)O)C2O[C@H](c3ccc(F)cc3)OC21 (some centres unmarked) [Compound 19],IC50,[2]; [5],< 100 nM
same,IC50,[2]; [6],62 nM
CCCNC(=O)Nc1ncnc2c1ncn2C1OC(COc2cc(OC)ccc2C(=O)O)C2O[C@H](c3ccc(F)cc3)OC21 (some centres unmarked) [Compound 20],IC50,[2]; [5],< 100 nM
same,IC50,[2]; [6],92 nM
CCCCNC(=O)Nc1ncnc2c1ncn2C1OC(COc2cc(OC)ccc2C(=O)O)C2O[C@H](c3ccc(F)cc3)OC21 (some centres unmarked) [Compound 21],IC50,[2]; [5],< 100 nM
same,IC50,[2]; [6],87 nM
COc1ccc(C(=O)O)c(OCC2OC(n3cnc4c(NC(=O)NC5CC5)ncnc43)C3O[C@@H](c4ccc(F)cc4)OC23)c1 (some centres unmarked) [Compound 22],IC50,[2]; [5],< 100 nM
same,IC50,[2]; [6],99 nM
COc1ccc(C(=O)O)c(OCC2OC(n3cnc4c(NC(=O)NCC5CC5)ncnc43)C3O[C@@H](c4ccc(F)cc4)OC23)c1 (some centres unmarked) [Compound 23],IC50,[2]; [5],< 100 nM
same,IC50,[2]; [6],99 nM
CCNC(=O)Nc1ncnc2c1ncn2C1OC(COc2c(F)cccc2C(=O)O)C2O[C@H](c3ccc(F)cc3)OC21 (some centres unmarked) [Compound 25],% inhibition of ADP-induced platelet aggregation at fixed concentration,[2]; washed human platelets,46% inh. @ 0.3 μM
CCCNC(=O)Nc1ncnc2c1ncn2C1OC(COc2cc(F)ccc2C(=O)O)C2O[C@H](c3ccc(F)cc3)OC21 (some centres unmarked) [Compound 28],% inhibition of ADP-induced platelet aggregation at fixed concentration,[2]; washed human platelets,64% inh. @ 0.3 μM
CCCNC(=O)Nc1ncnc2c1ncn2C1OC(COc2cccc(F)c2C(=O)O)C2O[C@H](c3ccc(F)cc3)OC21 (some centres unmarked) [Compound 30],% inhibition of ADP-induced platelet aggregation at fixed concentration,[2]; washed human platelets,56% inh. @ 0.3 μM
COc1cccc(C(=O)O)c1OCC1OC(n2cnc3c(NC(=O)NC4CC4)ncnc32)C2O[C@@H](c3ccc(F)cc3)OC12 (some centres unmarked) [Compound 33],% inhibition of ADP-induced platelet aggregation at fixed concentration,[2]; washed human platelets,56% inh. @ 0.3 μM
CCNC(=O)Nc1ncnc2c1ncn2C1OC(COc2ccc(OC)cc2C(=O)O)C2O[C@H](c3ccc(F)cc3)OC21 (some centres unmarked) [Compound 34],% inhibition of ADP-induced platelet aggregation at fixed concentration,[2]; washed human platelets,52% inh. @ 0.3 μM
O=C(Nc1ncnc2c1ncn2C1OC(COc2cc(F)ccc2C(=O)O)C2O[C@H](c3ccc(F)cc3)OC21)NC1CC1 (some centres unmarked) [Compound 35],% inhibition of ADP-induced platelet aggregation at fixed concentration,[2]; washed human platelets,61% inh. @ 0.3 μM
